Assay results from US9593122B2, “Substituted pyrazolylpyrazole derivative and use of same as herbicide” (KYOYU AGRI CO., LTD., priority 2013, dated 2017).

How the values were obtained:
Scirpus juncoides = assay: Paddy herbicidal activity test; format: in vivo; conditions: irrigated paddy pot, 30 days
In short: (§1)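 Flooded paddy-soil pots (3 cm water) were sown with Echinochloa, Monochoria and Scirpus, and rice at the 2.0-leaf stage was transplanted. Diluted wettable powder was dripped in per are at weed 3.5-leaf stage. After 30 days in a greenhouse (~30 °C), growth inhibition versus untreated plants was scored on an 11-level scale.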

Echinochloa crus-galli = assay: Paddy herbicidal activity test; format: in vivo; conditions: irrigated paddy pot, treated at 3.5 leaf stage of Echinochloa crus-galli, 30 days
In short: as §1

Monochoria vaginalis = assay: Paddy herbicidal activity test; format: in vivo; conditions: irrigated paddy pot, 30 days
In short: as §1

Rice plants = assay: Paddy herbicidal activity test, phytotoxicity to transplanted rice; format: in vivo; conditions: rice transplanted at 2.0 leaf stage, 30 days
Method: Rice paddy soil was filled into a 1/10000 are pot followed by the addition of suitable amounts of water and chemical fertilizer, kneading, seeding with Echinochloa crus-galli, Monochoria vaginalis and Scirpus juncoides and maintaining in an irrigated state at a water depth of 3 cm.
Wettable powder of Target Compound (I) shown in Table 1 prepared in compliance with the preparation examples were diluted with a suitable amount of water, rice plants in the 2.0 leaf stage were transplanted during 3.5 leaf stage of Echinochloa crus-galli, and treated by dropping in chemical in the prescribed amount per are using a pipette.
After treating for 30 days in a glass greenhouse at an average atmospheric temperature of 30° C., the herbicidal efficacy thereof was investigated.
Evaluation of herbicidal efficacy was carried out by comparing growth inhibition rate (%) with an untreated group, while evaluation of phytotoxicity was carried out by comparing growth inhibition rate (%) with the state of a complete eradication group, and were evaluated at 11 levels indicated below.

In the case of C=C(Cl)CNc1c(C#N)cnn1-c1nn2c(c1Cl)CCCC2 [Compound 2, 1-(3-chloro-4,5,6,7-tetrahydropyrazolo[1,5-a]pyridin-2-yl)-5-(2-chloroprop-2-enylamino)pyrazole-4-carbonitrile], the “Scirpus juncoides herbicidal efficacy (growth inhibition level)” value (Scirpus juncoides; 1g a.i./10a) is reported as 7 (7: 70% to less than 80%), the “Scirpus juncoides herbicidal efficacy (growth inhibition level)” value (Scirpus juncoides; 5g a.i./10a) is reported as 8 (8: 80% to less than 90%) and the “Echinochloa crus-galli herbicidal efficacy (growth inhibition level)” value (Echinochloa crus-galli; 1g a.i./10a) is reported as 9 (9: 90% to less than 100%). The “Echinochloa crus-galli herbicidal efficacy (growth inhibition level)” value (Echinochloa crus-galli; 5g a.i./10a) was 9 (9: 90% to less than 100%), the “Monochoria vaginalis herbicidal efficacy (growth inhibition level)” value (Monochoria vaginalis; 1g a.i./10a) was 9 (9: 90% to less than 100%) and the “Monochoria vaginalis herbicidal efficacy (growth inhibition level)” value (Monochoria vaginalis; 5g a.i./10a) was 9 (9: 90% to less than 100%). For the same compound, the “Rice plants phytotoxicity (growth inhibition level)” value (Rice plants; 1g a.i./10a) was 0 (0 (exponent): 0% to less than 10% (growth inhibition rate)), the “Rice plants phytotoxicity (growth inhibition level)” value (Rice plants; 5g a.i./10a) was 0 (0 (exponent): 0% to less than 10% (growth inhibition rate)) and the melting point was 123 to 124 °C.
